Patent publication US8410085B2, “Phospholipid compositions and uses thereof” (Baylor College of Medicine, priority 2007, dated 2013)
pKd: −log10 of the molar value. Blank lines part the entries; values can stand above or below the molecule they belong to.

How the values were obtained:
LRH-1 [1] = molecular target: T1, LRH-1 (Homo sapiens, UniProt O00482); assay: LRH-1 Luc reporter in C3A HepG2 cells (endogenous hLRH-1); details: C3A/HepG2 cells or cells with non-target control siRNAs
[2] = molecular target: hLRH-1 LBD / SRC-3 receptor interaction domain (Homo sapiens, UniProt O00482); assay: mammalian two-hybrid assay, VP16-hLRH1 LBD with Gal4-SRC3 RID in HeLa cells
Sequence of hLRH-1 LBD / SRC-3 receptor interaction domain (O00482 300-539 limits assumed): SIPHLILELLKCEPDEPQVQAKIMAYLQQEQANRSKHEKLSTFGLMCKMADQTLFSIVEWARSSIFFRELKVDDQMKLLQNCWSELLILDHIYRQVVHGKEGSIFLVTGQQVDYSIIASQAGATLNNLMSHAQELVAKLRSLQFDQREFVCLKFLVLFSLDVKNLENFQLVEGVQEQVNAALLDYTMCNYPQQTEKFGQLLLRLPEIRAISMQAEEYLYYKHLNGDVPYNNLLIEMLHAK
Sequence of hLRH-1 LBD / SRC-3 receptor interaction domain (Q9Y6Q9 whole entry partner, the tested form may be a part): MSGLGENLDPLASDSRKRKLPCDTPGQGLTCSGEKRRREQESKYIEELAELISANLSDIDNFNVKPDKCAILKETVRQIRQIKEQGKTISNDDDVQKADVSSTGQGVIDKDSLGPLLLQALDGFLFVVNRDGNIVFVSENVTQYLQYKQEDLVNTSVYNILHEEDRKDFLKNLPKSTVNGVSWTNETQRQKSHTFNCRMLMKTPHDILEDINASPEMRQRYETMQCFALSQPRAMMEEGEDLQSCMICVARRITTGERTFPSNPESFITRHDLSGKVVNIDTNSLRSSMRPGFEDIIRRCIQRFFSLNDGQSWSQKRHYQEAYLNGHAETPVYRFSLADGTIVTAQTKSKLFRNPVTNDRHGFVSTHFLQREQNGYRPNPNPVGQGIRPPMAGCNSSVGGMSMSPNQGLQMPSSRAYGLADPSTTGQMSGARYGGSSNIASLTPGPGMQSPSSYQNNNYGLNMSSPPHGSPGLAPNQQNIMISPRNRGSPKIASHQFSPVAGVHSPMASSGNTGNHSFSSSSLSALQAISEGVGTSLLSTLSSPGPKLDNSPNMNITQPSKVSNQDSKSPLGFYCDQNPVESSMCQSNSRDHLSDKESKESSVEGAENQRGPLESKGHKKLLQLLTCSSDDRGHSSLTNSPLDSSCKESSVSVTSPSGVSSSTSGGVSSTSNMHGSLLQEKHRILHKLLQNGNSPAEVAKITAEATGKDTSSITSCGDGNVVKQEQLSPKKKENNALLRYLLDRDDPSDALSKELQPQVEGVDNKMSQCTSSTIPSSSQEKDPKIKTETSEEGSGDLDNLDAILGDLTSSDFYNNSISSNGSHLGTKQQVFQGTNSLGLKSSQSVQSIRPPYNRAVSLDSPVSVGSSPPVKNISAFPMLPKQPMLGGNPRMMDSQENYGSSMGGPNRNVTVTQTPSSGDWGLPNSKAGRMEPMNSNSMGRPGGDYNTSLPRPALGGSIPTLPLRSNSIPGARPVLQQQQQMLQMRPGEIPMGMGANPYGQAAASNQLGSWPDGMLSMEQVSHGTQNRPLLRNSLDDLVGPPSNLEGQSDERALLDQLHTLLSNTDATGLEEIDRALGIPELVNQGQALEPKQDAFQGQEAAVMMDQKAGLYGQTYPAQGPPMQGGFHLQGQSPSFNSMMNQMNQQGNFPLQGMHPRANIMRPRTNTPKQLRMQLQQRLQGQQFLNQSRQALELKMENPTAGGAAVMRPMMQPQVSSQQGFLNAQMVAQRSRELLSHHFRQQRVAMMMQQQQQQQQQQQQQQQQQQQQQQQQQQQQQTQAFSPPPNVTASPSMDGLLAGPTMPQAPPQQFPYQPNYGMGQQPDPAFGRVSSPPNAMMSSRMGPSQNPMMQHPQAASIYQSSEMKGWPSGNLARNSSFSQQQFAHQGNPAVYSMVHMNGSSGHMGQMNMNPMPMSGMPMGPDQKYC

LRH-1 target Cyp8B1 = assay: hCYP8B1 expression by Q-PCR in C3A HepG2 cells; details: for expression of Cyp8B1: C3A/HepG2 cells or cells with non-target control siRNAs
LRH-1 [3] = molecular target: T1, LRH-1; assay: Oct4 proximal promoter (Oct4-PP Luc) activation by hLRH-1 in COS-1 cells; details: COS-1 cells, Oct4-PP Luc
hepatic gene expression = assay: hepatic mRNA levels in db/db mice
[4] = test system: hepatic expression of Cyp7A1, Cyp8B1, mSR-BI, SHP; assay: hepatic gene expression (Q-PCR) in wild type mice after oral gavage; format: in vivo, mouse; details: 100 mg/kg oral, five times over three days
From the text: (§1) Total liver RNA was isolated and prepared for the cDNA. […] Total liver RNA was isolated and prepared for cDNA.

db/db mice [5] = assay: glucose tolerance and insulin tolerance tests in db/db mice; format: in vivo, mouse; details: for glucose tolerance test (GTT): oral gavage 2 weeks
Procedure: Glucose tolerance (GTT: 1.5 g/kg i.p.) was assessed in fasted mice. One week later, insulin tolerance (ITT: 2 U/kg i.p) was assessed in fed mice. In the ITT, glucose levels after insulin injection are presented as the percentage of initial glucose concentrations.
After 1 week of additional treatment, the same mice were given an insulin tolerance test (ITT) and sacrificed.

db/db mice [6] = assay: body and organ weights, serum and hepatic parameters in db/db mice
LRH-1 [7] = molecular target: T1, LRH-1; assay: human LRH-1 transactivation, HeLa cotransfection with LRH-1/SF-1 response element luciferase reporter; format: cell-based; design: expressed in transfected cells; host or cells: HeLa (A1, A3); details: HeLa cells, 100 μM
Procedure: Controls (vector only and no lipid) are as indicated. […] Cells were treated with 100 μM of the indicated PCs and luciferase expression (RLU, relative light units) was normalized using an internal β-galactosidase control. vec, empty vector; −, ethanol solvent control.
HeLa cells were transfected with an hLRH-1 expression vector along with mSHP1080-Luc reporter. […] Oct4-PPmut Luc is identical to Oct4-PP Luc except for the insertion of point mutations in the DR0 element. […] HeLa cells were cotransfected with various nuclear receptors and the reporter plasmid (RE-tk-luc). […] Data are expressed for each reporter as fold activation of normalized luciferase activity relative to veh-treated cells.
A number of different phosphatidylcholine (PC) species were screened for effects on human LRH-1 transactivation in HeLa cell cotransfections with a synthetic luciferase reporter containing multiple copies of an LRH-1/SF-1 response element.

wild type male mice = assay: bile acids, serum glucose and NEFA in wild type mice after oral gavage; format: in vivo, mouse; details: 100 mg/kg oral
LRH-1 [8] = assay: hepatic gene expression in LRH-1 f/f mice infected with Ad-Cre; format: in vivo, mouse; details: 100 mg/kg oral
From the text: as §1

human PXR = human PXR (Homo sapiens, UniProt O75469); assay: nuclear receptor cotransfection (RE-tk-luc), HeLa cells; details: 100 μM
Sequence of human PXR (O75469 whole entry): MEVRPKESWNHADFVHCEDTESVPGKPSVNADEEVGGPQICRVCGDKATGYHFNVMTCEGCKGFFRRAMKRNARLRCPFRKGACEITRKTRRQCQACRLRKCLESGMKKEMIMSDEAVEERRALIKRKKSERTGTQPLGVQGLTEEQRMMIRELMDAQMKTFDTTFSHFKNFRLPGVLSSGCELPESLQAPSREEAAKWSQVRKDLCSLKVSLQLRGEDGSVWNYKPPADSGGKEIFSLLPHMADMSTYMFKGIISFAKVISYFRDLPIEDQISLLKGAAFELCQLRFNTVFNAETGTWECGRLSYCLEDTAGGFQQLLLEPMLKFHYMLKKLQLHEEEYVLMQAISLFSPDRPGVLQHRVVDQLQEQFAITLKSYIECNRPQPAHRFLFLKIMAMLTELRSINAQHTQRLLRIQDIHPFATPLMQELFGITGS

SF-1 [9] = molecular target: T2, SF-1 (Homo sapiens, UniProt Q13285); assay: SF-1 transactivation, reporter cotransfection in HeLa cells
T2 sequence (Q13285 whole entry): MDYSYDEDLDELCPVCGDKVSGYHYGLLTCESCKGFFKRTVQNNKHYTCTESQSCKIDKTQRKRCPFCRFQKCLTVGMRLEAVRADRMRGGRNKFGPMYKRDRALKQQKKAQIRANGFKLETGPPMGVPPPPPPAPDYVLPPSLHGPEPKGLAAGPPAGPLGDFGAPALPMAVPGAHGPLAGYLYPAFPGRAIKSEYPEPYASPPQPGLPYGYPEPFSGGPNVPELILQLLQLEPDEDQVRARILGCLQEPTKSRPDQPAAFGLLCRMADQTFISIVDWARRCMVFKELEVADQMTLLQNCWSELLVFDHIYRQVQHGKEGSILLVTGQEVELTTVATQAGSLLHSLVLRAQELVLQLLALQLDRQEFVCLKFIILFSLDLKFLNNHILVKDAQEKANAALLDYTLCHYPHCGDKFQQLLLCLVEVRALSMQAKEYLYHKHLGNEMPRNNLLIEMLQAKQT

TRβ = TRβ (Homo sapiens, UniProt P10828); assay: nuclear receptor cotransfection (RE-tk-luc), HeLa cells; details: 100 μM
ERα = ERα (Homo sapiens, UniProt P03372); assay: as above; details: 100 μM
human CAR = human CAR (Homo sapiens, UniProt Q14994); assay: as above; details: 100 μM
Sequence of human CAR (Q14994 whole entry): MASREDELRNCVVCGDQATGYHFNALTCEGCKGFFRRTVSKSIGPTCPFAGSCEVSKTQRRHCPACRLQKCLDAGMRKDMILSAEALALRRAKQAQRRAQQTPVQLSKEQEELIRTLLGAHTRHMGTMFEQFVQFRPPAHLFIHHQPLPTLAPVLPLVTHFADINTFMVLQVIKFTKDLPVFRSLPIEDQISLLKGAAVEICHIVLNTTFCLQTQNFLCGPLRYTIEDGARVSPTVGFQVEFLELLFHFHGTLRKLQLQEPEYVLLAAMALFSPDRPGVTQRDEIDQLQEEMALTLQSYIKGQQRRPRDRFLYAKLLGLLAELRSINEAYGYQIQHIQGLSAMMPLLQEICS

RXRα = RXRα (Homo sapiens, UniProt P19793); assay: as above; details: 100 μM
Sequence of RXRα (P19793 whole entry): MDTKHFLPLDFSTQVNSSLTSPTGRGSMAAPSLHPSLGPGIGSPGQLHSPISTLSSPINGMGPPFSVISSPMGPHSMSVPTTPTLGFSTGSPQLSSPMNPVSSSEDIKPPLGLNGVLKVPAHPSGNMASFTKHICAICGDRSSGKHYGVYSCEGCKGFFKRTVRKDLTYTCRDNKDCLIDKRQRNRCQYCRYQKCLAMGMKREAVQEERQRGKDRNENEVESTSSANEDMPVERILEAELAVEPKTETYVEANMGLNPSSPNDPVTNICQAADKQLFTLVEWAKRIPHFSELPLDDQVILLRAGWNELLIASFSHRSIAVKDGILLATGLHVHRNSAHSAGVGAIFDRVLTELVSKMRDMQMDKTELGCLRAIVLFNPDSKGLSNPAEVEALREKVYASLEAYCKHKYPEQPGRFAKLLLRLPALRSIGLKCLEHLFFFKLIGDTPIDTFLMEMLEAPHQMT

RARβ = RARβ (Homo sapiens, UniProt P10826); assay: as above; details: 100 μM
mouse CAR = mouse CAR (Mus musculus, UniProt O35627); assay: as above; details: 100 μM
Sequence of mouse CAR (O35627 whole entry): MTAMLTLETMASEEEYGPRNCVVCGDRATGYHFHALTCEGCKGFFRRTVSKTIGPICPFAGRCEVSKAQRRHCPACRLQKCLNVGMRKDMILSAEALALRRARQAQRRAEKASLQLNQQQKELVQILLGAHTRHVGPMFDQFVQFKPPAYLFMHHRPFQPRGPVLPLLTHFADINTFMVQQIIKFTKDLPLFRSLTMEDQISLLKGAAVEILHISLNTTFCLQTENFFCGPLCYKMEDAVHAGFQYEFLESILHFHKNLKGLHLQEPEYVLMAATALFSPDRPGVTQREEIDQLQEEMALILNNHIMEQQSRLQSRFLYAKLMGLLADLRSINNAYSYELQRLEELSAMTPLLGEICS

LXRα = LXRα (Homo sapiens, UniProt Q13133); assay: as above; details: 100 μM
PPARγ = PPARγ (Homo sapiens, UniProt P37231); assay: as above; details: 100 μM
PPARδ = PPARδ (Homo sapiens, UniProt Q03181); assay: as above; details: 100 μM
FXR = FXR (Homo sapiens, UniProt Q96RI1); assay: as above; details: 100 μM
Sequence of FXR (Q96RI1 whole entry, species assumed): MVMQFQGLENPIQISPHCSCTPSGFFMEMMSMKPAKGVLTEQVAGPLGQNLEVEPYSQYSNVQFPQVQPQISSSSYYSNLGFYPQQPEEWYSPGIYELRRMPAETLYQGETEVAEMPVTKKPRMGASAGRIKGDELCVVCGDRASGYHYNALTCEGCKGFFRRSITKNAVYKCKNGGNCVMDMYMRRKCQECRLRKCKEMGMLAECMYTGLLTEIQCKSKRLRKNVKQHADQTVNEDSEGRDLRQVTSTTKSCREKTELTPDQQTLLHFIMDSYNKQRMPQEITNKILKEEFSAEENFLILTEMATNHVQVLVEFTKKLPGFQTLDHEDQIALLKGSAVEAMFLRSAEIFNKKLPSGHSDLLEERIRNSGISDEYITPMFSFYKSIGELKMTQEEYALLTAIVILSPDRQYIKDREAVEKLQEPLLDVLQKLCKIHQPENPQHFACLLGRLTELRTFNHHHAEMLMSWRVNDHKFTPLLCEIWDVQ

PPARα = PPARα (Homo sapiens, UniProt Q07869); assay: as above; details: 100 μM
SF-1 [10] = molecular target: T2, SF-1; design: expressed in transfected cells; host or cells: HeLa; details: in vitro, Li et al. Mol Cell Biol 2007; read-out: affinity of SF-1; cited from earlier work

T1 sequence (O00482 whole entry, the tested form may be a part): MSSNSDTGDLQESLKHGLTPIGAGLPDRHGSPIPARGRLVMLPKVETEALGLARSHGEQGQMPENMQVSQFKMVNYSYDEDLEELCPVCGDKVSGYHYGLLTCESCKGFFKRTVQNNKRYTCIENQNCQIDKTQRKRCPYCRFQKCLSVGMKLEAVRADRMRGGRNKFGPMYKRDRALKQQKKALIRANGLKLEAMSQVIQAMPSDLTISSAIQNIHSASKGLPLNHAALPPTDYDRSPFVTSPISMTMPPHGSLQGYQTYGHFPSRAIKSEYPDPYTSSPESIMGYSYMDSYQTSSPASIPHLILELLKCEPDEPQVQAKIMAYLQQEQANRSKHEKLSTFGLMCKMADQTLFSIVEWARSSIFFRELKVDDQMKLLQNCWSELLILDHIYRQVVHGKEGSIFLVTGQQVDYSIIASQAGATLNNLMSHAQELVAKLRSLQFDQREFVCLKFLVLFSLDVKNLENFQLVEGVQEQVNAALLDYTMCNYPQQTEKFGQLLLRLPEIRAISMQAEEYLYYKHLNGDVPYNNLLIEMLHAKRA

Compound: C[C@H](CCC(=O)O)[C@H]1CC[C@H]2[C@@H]3[C@H](O)C[C@@H]4C[C@H](O)CC[C@]4(C)[C@H]3CC[C@]12C [CDCA, chenodeoxycholic acid]
LRH-1 Luc luciferase activity (LRH-1 [1]): not
interaction of hLRH-1 LBD with SRC-3 RID [2]: unaffected

Compound: CCCCCCCCCCCCCC(=O)OC[C@H](COP(=O)(O)OCCN)OC(=O)CCCCCCCCCCCCC [C14:0-C14:0 PE]
LRH-1 transactivation (luciferase) (LRH-1 [7]): no activation

Compound: C[C@H](CCC(=O)O)[C@H]1CC[C@H]2[C@@H]3[C@H](O)C[C@@H]4C[C@H](O)CC[C@]4(C)[C@H]3C[C@H](O)[C@]12C [CA, cholic acid, reference compound]
response with the Oct4 promoter (LRH-1 [3]): not
hepatic expression of Cyp7A1 [4]: reduced
hepatic expression of Cyp8B1 [4]: reduced
hepatic expression of SHP [4]: induced
hepatic expression of mSR-BI [4]: induced
liver bile acids (wild type male mice): did not show statistically significant changes
serum bile acid levels (wild type male mice): substantially elevated
serum free fatty acids (wild type male mice): decreased levels
serum glucose levels (wild type male mice): not
hepatic gene expression response when LRH-1 gene removed by Cre (LRH-1 [8]): lost

Compound: CCCCCCCCCCCC(=O)OC[C@H](COP(=O)(O)OCCN)OC(=O)CCCCCCCCCCC [C12:0-12:0 PE]
LRH-1 transactivation (luciferase) (LRH-1 [7]): no activation

Compound: CCCCCCCCCCCC(=O)OCC(COP(=O)([O-])OCC[N+](C)(C)C)OC(=O)CCCCCCCCCCC (stereo not drawn) [DLPC, dilauroylphosphatidylcholine]
activation or inhibition of human PXR (human PXR): did not activate or inhibit
SF-1 activation (SF-1 [9]; 100 μM): activate SF-1
activation or inhibition of TRβ (TRβ): did not activate or inhibit
expression of Cyp8B1 (LRH-1 target Cyp8B1): modestly but significantly induced
Cyp8B1 response when LRH-1 expression is knocked down (LRH-1 target Cyp8B1; siRNA hLRH-1): lost
activation or inhibition of ERα (ERα): did not activate or inhibit
activation or inhibition of human CAR (human CAR): did not activate or inhibit
activation or inhibition of RXRα (RXRα): did not activate or inhibit
activation or inhibition of RARβ (RARβ): did not activate or inhibit
activation or inhibition of mouse CAR (mouse CAR): did not activate or inhibit
activation or inhibition of LXRα (LXRα): did not activate or inhibit
SHP expression (hepatic gene expression; mouse, in vivo): appeared to be decreased
expression of ACC2 (hepatic gene expression; mouse, in vivo): significantly decreased
expression of FAS (hepatic gene expression; mouse, in vivo): significantly decreased
expression of SCD-1 (hepatic gene expression; mouse, in vivo): significantly decreased
expression of SREBP-1c (hepatic gene expression; mouse, in vivo): significantly decreased
hepatic expression of Cyp7A1 (hepatic gene expression; mouse, in vivo): increased expression
hepatic expression of Cyp8B1 (hepatic gene expression; mouse, in vivo): increased expression
hepatic expression of genes associated with glucose homeostasis (ACC1, glucokinase, hexokinase 1 and 2, PEPCK, glucose-6-phosphatase, pyruvate carboxylase, PGC-1α) (hepatic gene expression; mouse, in vivo): no effect
hepatic expression of Cyp7A1 [4]: significantly induced
hepatic expression of Cyp8B1 [4]: significantly induced
hepatic expression of SHP [4]: repressed
hepatic expression of mSR-BI [4]: significantly induced
glucose tolerance test (GTT) (db/db mice [5]): remarkable improvement
insulin tolerance test (ITT) (db/db mice [5]; oral gavage 3 weeks): remarkable improvement
activation or inhibition of PPARγ (PPARγ): did not activate or inhibit
liver bile acids (wild type male mice): somewhat lower
serum bile acid levels (wild type male mice): substantially elevated
serum free fatty acids (wild type male mice): decreased levels
serum glucose levels (wild type male mice): decreased serum glucose levels
total bile acid pool (wild type male mice): significant increase
activation or inhibition of PPARδ (PPARδ): did not activate or inhibit
activation or inhibition of FXR (FXR): did not activate or inhibit
hepatic NEFA (db/db mice [6]): more modestly lowered
hepatic cholesterol (db/db mice [6]): increased
hepatic triglycerides (TG) (db/db mice [6]): significantly decreased
serum bile acid levels (db/db mice [6]): significantly increased
serum cholesterol (db/db mice [6]): modestly decreased
serum free fatty acids (NEFA) (db/db mice [6]): modestly decreased
total body weight (db/db mice [6]): not altered
weight of liver (db/db mice [6]): not altered
weight of reproductive fat pads (db/db mice [6]): not altered
activation or inhibition of PPARα (PPARα): did not activate or inhibit

More lines, main results first:

expression of Cyp8B1 (LRH-1 target Cyp8B1): not
LRH-1 Luc luciferase activity (LRH-1 [1]): not
response with the Oct4 promoter (LRH-1 [3]): not
interaction of hLRH-1 LBD with SRC-3 RID [2]: unaffected
Compound: CCCCCCCCCCCCCCCC(=O)OC[C@H](COP(=O)([O-])OCC[N+](C)(C)C)OC(=O)CCCCCCCCCCCCCCC [DPPC, dipalmitoyl PC, reference compound]
SR-B1 expression (hepatic gene expression; db/db mice): not significantly affected
hepatic expression of Cyp7A1 (hepatic gene expression; db/db mice): not
hepatic expression of genes associated with glucose homeostasis (ACC1, glucokinase, hexokinase 1 and 2, PEPCK, glucose-6-phosphatase, pyruvate carboxylase, PGC-1α) (hepatic gene expression; db/db mice): no effect
SHP expression (hepatic gene expression; db/db mice, not statistically significant): appeared to be decreased
hepatic expression of Cyp7A1 [4]: without significant effect
hepatic expression of Cyp8B1 [4]: without significant effect
hepatic expression of SHP [4]: without significant effect
hepatic expression of mSR-BI [4]: without significant effect
glucose tolerance test (GTT) (db/db mice [5]): lesser beneficial response
serum bile acid levels (db/db mice [6]): not
total body weight (db/db mice [6]): not altered
weight of liver (db/db mice [6]): not altered
weight of reproductive fat pads (db/db mice [6]): not altered

LRH-1 transactivation (luciferase) (LRH-1 [7]): no activation
Compound: CCCCCCCCCC(=O)OC[C@H](COP(=O)(O)OCCN)OC(=O)CCCCCCCCC [C10:0-10:0 PE]

increase of SF-1 transactivation (SF-1 [9]): 1.2-1.4 fold
LRH-1 transactivation (luciferase) (LRH-1 [7]): no effect
Compound: CCCCCCCCCCCCCC(=O)OC[C@H](COP(=O)(O)O)OC(=O)CCCCCCCCCCCCC [C14:0-C14:0 PA]
pKd (SF-1 [10]): ~7.00
